Laboratory results from paper PMC7076352 (Pharmaceutics, 2020).
Where two headings read alike, the source gives them in different places.

Legend:
CYP2C19 = assay: In vitro cocktail CYP450 activity assay in rat liver microsomes, CYP2C19 (omeprazole probe); details: for IC50 at 15 min: Sprague-Dawley, rat, pooled rat liver microsomes, pH 7.4, probe omeprazole (1.07 µM, in seven-probe cocktail), IC50 CYP2C19, single components, RLM 0.2 mg/mL, triplicate, mean ± SD; for Response (% control) CYP2C19: at the Cmax level in rat plasma, calculated from the dose–response curve
Procedure: (§1) (OHBUP-[D6]) and 5 nM 4′-hydroxydiclofenac-[^13C6] (OHDIC-[^13C6]) as internal standards (ISs). […]
(§2) standard addition experiments. Each group included four concentration levels. For the PK […]
(§3) The probe compounds, viz. […]
(§4) chosen after incubating all the recruited substrates. In order to assure the linear relationship […]
(§5) The incubation system was also optimized in terms of substrate concentrations. The substrates concentrations of […]

CYP3A4 = assay: in vitro
Procedure: as §1, §2, §3, §4, §5

CYP2C9 = assay: In vitro cocktail CYP450 activity assay in rat liver microsomes, CYP2C9 (tolbutamide probe); details: for IC50 at 15 min: Sprague-Dawley, rat, pooled rat liver microsomes, pH 7.4, probe tolbutamide (18 µM, in seven-probe cocktail), IC50 CYP2C9, single components, RLM 0.2 mg/mL, triplicate, mean ± SD; for Response (% control) CYP2C9: at the Cmax level in rat plasma, calculated from the dose–response curve
Procedure: as §1, §2, §3, §4, §5

CYP2D6 = assay: in vitro; details: Sprague-Dawley, rat; for Response (% control) CYP2D6: 15 min, pH 7.4; for IC50 at 15 min: microsomes, pH 7.4, IC50 CYP2D6
Procedure: as §1, §2, §3, §4, §5

CYP2B6 = assay: In vitro cocktail CYP450 activity assay in rat liver microsomes, CYP2B6 (bupropion probe); details: Sprague-Dawley, rat, pooled rat liver microsomes, pH 7.4, probe bupropion (90 µM, in seven-probe cocktail), IC50 CYP2B6, single components; RLM 0.2 mg/mL, 15 min, triplicate, mean ± SD
Procedure: as §1, §2, §3, §4, §5

CYP1A2 = biological target: T1, CYP1A2 (Rattus norvegicus, UniProt P04799); assay: In vitro cocktail CYP450 activity assay in rat liver microsomes, CYP1A2 (phenacetin probe); details: for IC50: IC50 CYP1A2, single components, RLM 0.2 mg/mL, 15 min, triplicate, mean ± SD
T1 sequence (P04799 1-513): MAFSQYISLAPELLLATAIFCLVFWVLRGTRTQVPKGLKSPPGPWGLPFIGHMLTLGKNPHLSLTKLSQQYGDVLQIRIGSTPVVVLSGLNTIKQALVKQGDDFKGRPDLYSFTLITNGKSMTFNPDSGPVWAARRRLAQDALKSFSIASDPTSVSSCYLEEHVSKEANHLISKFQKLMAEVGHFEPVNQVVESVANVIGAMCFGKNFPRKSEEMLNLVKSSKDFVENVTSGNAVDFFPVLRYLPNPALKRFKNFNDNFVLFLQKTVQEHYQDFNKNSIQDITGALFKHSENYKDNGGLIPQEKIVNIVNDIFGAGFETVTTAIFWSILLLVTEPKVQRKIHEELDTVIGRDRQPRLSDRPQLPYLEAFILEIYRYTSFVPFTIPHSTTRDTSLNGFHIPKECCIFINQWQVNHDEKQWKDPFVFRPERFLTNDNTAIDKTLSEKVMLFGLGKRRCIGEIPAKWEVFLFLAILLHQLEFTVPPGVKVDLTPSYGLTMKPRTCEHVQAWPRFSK
Procedure: as §1, §2, §3, §4, §5

CYP2E1 [1] = biological target: T2, CYP2E1 (Rattus norvegicus, UniProt P05182)
in vivo = assay: in vivo; parameters: species or system Sprague-Dawley (SD) rats; details: Sprague-Dawley, plasma, rat; for concentration at […]: 0.083 h after oral CNP; for AUC(0-inf) / AUC(0-t) / Cmax / Tmax / half-life: 60 mg/kg
Procedure: At each time, 0.5 mL of blood was collected in the heparin sodium tubes. Plasma was separated by centrifugation at 4000 rpm for 10 min and stored below −80 °C until bioanalysis. Oasis PRiME HLB SPE cartridges (1 cc/30 mg, Waters, Milford, MA, USA) were used to process the plasma samples (Supplementary Materials).
The generic layout of instrumentation setup of the LVDI-UHPLC-MS/MS was conducted on a Shimadzu UHPLC system consisting of two LC-20ADXR pumps, a DGU-20A3R degasser, and a CBM-20A controller (Kyoto, Japan) with a SCIEX 4500 QTRAP mass spectrometer mounted with an electron spray ionization (ESI) interface as well as an electronic 6-port/2-channel valve (Foster City, CA, USA). Analyst software package (version 1.6.2, SCIEX) was implemented to control and synchronize the entire system, and also for data acquisition and processing. A single analytical run was fragmented into two phases, namely, loading and elution phases, by switching the electronic valve (Figure 2). At the loading phase, the valve was maintained at A-channel. The specimen aliquot of large volume delivered from the auto-sampler was captured onto a guard column. Meanwhile, the pumps were responsible for delivering the mobile phase at a high flow rate, aiming to dilute the sample solvent, thus facilitating the candidate constituents to concentrate on the pre-guard column. Then, the valve was automatically switched to the B-channel to trigger the elution phase. The trapped components were flushed from the pre-guard column into an analytical column, and underwent multiple reaction monitoring (MRM) analysis on the optimized LC gradients. The detailed information of LVDI-UHPLC-MS/MS analysis for pharmacokinetic and cocktail studies is shown in the Supplementary Materials section.

CYP2E1 [2] = biological target: T2, CYP2E1; details: IC50 CYP2E1, single components; RLM 0.2 mg/mL, 15 min, triplicate, mean ± SD
[3] = at the Cmax level in rat plasma, calculated from the dose–response curve
[4] = Sprague-Dawley, rat, 15 min, pH 7.4

T2 sequence (P05182 whole entry): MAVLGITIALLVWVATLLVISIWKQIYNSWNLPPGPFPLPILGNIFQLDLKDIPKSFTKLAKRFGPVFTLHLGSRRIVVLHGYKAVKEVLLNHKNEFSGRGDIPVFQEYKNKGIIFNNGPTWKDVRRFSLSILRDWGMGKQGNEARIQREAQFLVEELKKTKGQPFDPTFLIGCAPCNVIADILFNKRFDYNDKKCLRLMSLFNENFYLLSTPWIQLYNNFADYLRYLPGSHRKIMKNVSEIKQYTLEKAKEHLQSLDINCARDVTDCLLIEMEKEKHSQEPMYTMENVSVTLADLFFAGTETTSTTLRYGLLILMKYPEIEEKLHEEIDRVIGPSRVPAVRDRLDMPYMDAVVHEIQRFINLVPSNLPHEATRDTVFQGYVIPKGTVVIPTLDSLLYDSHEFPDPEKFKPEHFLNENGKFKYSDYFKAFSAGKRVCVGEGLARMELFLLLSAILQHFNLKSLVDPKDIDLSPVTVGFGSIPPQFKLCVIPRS

CC(C)=CCC[C@](C)(O[C@@H]1O[C@H](CO)[C@@H](O)[C@H](O)[C@H]1O)[C@H]1CC[C@]2(C)[C@@H]1[C@H](O)C[C@@H]1[C@@]3(C)CC[C@H](O)C(C)(C)[C@@H]3[C@@H](O[C@@H]3O[C@H](CO)[C@@H](O)[C@H](O)[C@H]3O[C@@H]3OC[C@@H](O)[C@H](O)[C@H]3O)C[C@]12C [NGR1, notoginsenoside R1]
IC50 at 15 min (CYP2C19): 108 ± 29.6 µM
Response (% control) CYP2C19 (CYP2C19): 92.32 % control
IC50 (CYP3A4; Sprague-Dawley, rat, microsomes, pH 7.4, IC50 CYP3A4, single components, RLM 0.2 mg/mL, 15 min, triplicate, mean ± SD): 84.6 ± 1.79 µM
Response (% control) CYP3A4 (CYP3A4; [3]): 99.94 % control
IC50 at 15 min (CYP2C9): 154 ± 16.6 µM
Response (% control) CYP2C9 (CYP2C9): 99.99 % control
Response (% control) CYP2D6 (CYP2D6): 92.76 % control
IC50 at 15 min (CYP2D6): 20.4 ± 3.45 µM
IC50 at 15 min (CYP2B6): > 200 µM
IC50 (CYP1A2): 112 ± 7.72 µM
Response (% control) CYP2E1 (CYP2E1 [1]; [4]): 99.99 % control
concentration at […] (in vivo): 0.26 ± 0.06 ng/mL
concentration at 0.25 h (in vivo; 0.25 h after oral CNP): 0.36 ± 0.05 ng/mL
concentration at 0.5 h (in vivo; 0.5 h after oral CNP): 0.53 ± 0.29 ng/mL
concentration at 1 h (in vivo; 1 h after oral CNP): 0.45 ± 0.19 ng/mL
concentration at 1.5 h (in vivo; 1.5 h after oral CNP): 0.33 ± 0.12 ng/mL
concentration at 2 h (in vivo; 2 h after oral CNP): 0.32 ± 0.05 ng/mL
concentration at 3 h (in vivo; 3 h after oral CNP): 0.44 ± 0.15 ng/mL
concentration at 4 h (in vivo; 4 h after oral CNP): 0.38 ± 0.12 ng/mL
concentration at 6 h (in vivo; 6 h after oral CNP): 0.37 ± 0.17 ng/mL
concentration at 8 h (in vivo; 8 h after oral CNP): 0.46 ± 0.15 ng/mL
concentration at 12 h (in vivo; 12 h after oral CNP): 0.38 ± 0.18 ng/mL
concentration at 24 h (in vivo; 24 h after oral CNP): 0.17 ± 0.06 ng/mL
AUC(0-inf) (in vivo; po): 8.14 ± 3.6 ng·h/mL
AUC(0-t) (in vivo; po): 6.3 ± 2.41 ng·h/mL
Cmax (in vivo; po): 0.64 ± 0.18 ng/mL
Tmax (in vivo; po): 1.15 ± 1.06 h
half-life (in vivo; po): 10.5 ± 3.06 h
concentration at 0.25 h (in vivo; po, 60 mg·kg^−1): 0.46 ± 0.18 ng/mL
concentration at 0.5 h (in vivo; po, 60 mg·kg^−1): 0.5 ± 0.15 ng/mL
concentration at 1 h (in vivo; po, 60 mg·kg^−1): 0.45 ± 0.14 ng/mL
concentration at 1.5 h (in vivo; po, 60 mg·kg^−1): 0.28 ± 0.1 ng/mL
concentration at 2 h (in vivo; po, 60 mg·kg^−1): 0.25 ± 0.11 ng/mL
concentration at 3 h (in vivo; po, 60 mg·kg^−1): 0.46 ± 0.2 ng/mL
concentration at 4 h (in vivo; po, 60 mg·kg^−1): 0.38 ± 0.26 ng/mL
concentration at 6 h (in vivo; po, 60 mg·kg^−1): 0.25 ± 0.06 ng/mL
concentration at 8 h (in vivo; po, 60 mg·kg^−1): 0.35 ± 0.06 ng/mL
concentration at 12 h (in vivo; po, 60 mg·kg^−1): 0.35 ± 0.14 ng/mL
concentration at 24 h (in vivo; po, 60 mg·kg^−1): 0.14 ± 0.04 ng/mL
IC50 (CYP2E1 [2]): 122 ± 8.96 µM

CC(C)=CCC[C@](C)(O[C@@H]1O[C@H](CO)[C@@H](O)[C@H](O)[C@H]1O)[C@H]1CC[C@]2(C)[C@@H]1[C@H](O)C[C@@H]1[C@@]3(C)CC[C@H](O[C@@H]4O[C@H](CO)[C@@H](O)[C@H](O)[C@H]4O[C@@H]4O[C@H](CO)[C@@H](O)[C@H](O)[C@H]4O)C(C)(C)[C@@H]3CC[C@]12C [GRd, ginsenoside Rd]
IC50 at 15 min (CYP2C19): 71.4 ± 14.3 µM
Response (% control) CYP2C19 (CYP2C19): 99.95 % control
Response (% control) CYP3A4 (CYP3A4; [4]): 85.25 % control
IC50 at 15 min (CYP3A4; Sprague-Dawley, rat, microsomes, pH 7.4): 61.4 ± 14.3 µM
IC50 at 15 min (CYP2C9): 73 ± 3.71 µM
Response (% control) CYP2C9 (CYP2C9): 99.97 % control
Response (% control) CYP2D6 (CYP2D6): 99.99 % control
IC50 at 15 min (CYP2D6): 64.8 ± 11.7 µM
IC50 at 15 min (CYP2B6): > 200 µM
IC50 (CYP1A2): 4.36 ± 2.31 µM
Response (% control) CYP1A2 (CYP1A2; [3]): 71.33 % control
Response (% control) CYP2E1 (CYP2E1 [1]; [3]): 98.16 % control
concentration at […] (in vivo): 6.63 ± 0.64 ng/mL
concentration at 0.25 h (in vivo; 0.25 h after oral CNP): 7.13 ± 0.69 ng/mL
concentration at 0.5 h (in vivo; 0.5 h after oral CNP): 12.5 ± 4.73 ng/mL
concentration at 1 h (in vivo; 1 h after oral CNP): 13.5 ± 3.67 ng/mL
concentration at 1.5 h (in vivo; 1.5 h after oral CNP): 12.8 ± 1.79 ng/mL
concentration at 2 h (in vivo; 2 h after oral CNP): 17.6 ± 5.2 ng/mL
concentration at 3 h (in vivo; 3 h after oral CNP): 18.7 ± 7.48 ng/mL
concentration at 4 h (in vivo; 4 h after oral CNP): 25 ± 15.8 ng/mL
concentration at 6 h (in vivo; 6 h after oral CNP): 24.9 ± 13.1 ng/mL
concentration at 8 h (in vivo; 8 h after oral CNP): 15.6 ± 5.29 ng/mL
concentration at 12 h (in vivo; 12 h after oral CNP): 12.4 ± 7.03 ng/mL
concentration at 24 h (in vivo; 24 h after oral CNP): 2.85 ± 0.67 ng/mL
concentration at 48 h (in vivo; 48 h after oral CNP): 3.96 ± 0.34 ng/mL
concentration at 72 h (in vivo; 72 h after oral CNP): 2.32 ± 0.12 ng/mL
AUC(0-inf) (in vivo; po): 619 ± 157 ng·h/mL
AUC(0-t) (in vivo; po): 461 ± 117 ng·h/mL
Cmax (in vivo; po): 29.4 ± 10.7 ng/mL
Tmax (in vivo; po): 4.5 ± 1.76 h
half-life (in vivo; po): 42.8 ± 8.84 h
concentration at 0.25 h (in vivo; po, 60 mg·kg^−1): 9 ± 2.12 ng/mL
concentration at 0.5 h (in vivo; po, 60 mg·kg^−1): 11.5 ± 0.97 ng/mL
concentration at 1 h (in vivo; po, 60 mg·kg^−1): 13.9 ± 4.94 ng/mL
concentration at 1.5 h (in vivo; po, 60 mg·kg^−1): 14.9 ± 3.51 ng/mL
concentration at 2 h (in vivo; po, 60 mg·kg^−1): 19.2 ± 6.71 ng/mL
concentration at 3 h (in vivo; po, 60 mg·kg^−1): 22.3 ± 14.6 ng/mL
concentration at 4 h (in vivo; po, 60 mg·kg^−1): 23.9 ± 12.6 ng/mL
concentration at 6 h (in vivo; po, 60 mg·kg^−1): 26.2 ± 10.4 ng/mL
concentration at 8 h (in vivo; po, 60 mg·kg^−1): 16.7 ± 7.24 ng/mL
concentration at 12 h (in vivo; po, 60 mg·kg^−1): 8.73 ± 3.74 ng/mL
concentration at 24 h (in vivo; po, 60 mg·kg^−1): 3.57 ± 1.4 ng/mL
concentration at 48 h (in vivo; po, 60 mg·kg^−1): 4.15 ± 1.97 ng/mL
concentration at 72 h (in vivo; po, 60 mg·kg^−1): 2.52 ± 0.63 ng/mL
IC50 (CYP2E1 [2]): 43.46 ± 0.06 µM
